Assay results as given in BigSolDB 2.1.

Settings: in ethylbenzene

CCCCCCCCCCCCCCCCCCCC
Settings | solubility (mole fraction)
266.52 K | 0.00955
270.33 K | 0.0149
272.73 K | 0.0195
275.75 K | 0.0265
278.21 K | 0.0364
281.94 K | 0.0536
282.8 K | 0.0614
284.97 K | 0.0791
286.15 K | 0.0904
287.19 K | 0.104
288.25 K | 0.116
289.67 K | 0.136
290.53 K | 0.151
291.27 K | 0.164
292.34 K | 0.179
292.97 K | 0.191
293.9 K | 0.204

CCCCCCCCCCCCCCCCCCCCCC
Settings | solubility (mole fraction)
268.67 K | 0.00443
274.22 K | 0.00854
277.47 K | 0.0123
281.39 K | 0.0202
284.43 K | 0.0294
286.56 K | 0.0381
289.51 K | 0.0539
291.7 K | 0.0702
293.53 K | 0.0865
295.46 K | 0.107
296.91 K | 0.127
297.87 K | 0.143
298.81 K | 0.256
299.86 K | 0.171
300.54 K | 0.186
301.25 K | 0.198
302.03 K | 0.213
302.44 K | 0.226

CCCCCCCCCCCCCCCCCCCCCCCC
Settings | solubility (mole fraction)
272.02 K | 0.00269
279.76 K | 0.00689
285.62 K | 0.0142
289.1 K | 0.0224
292.74 K | 0.0346
296 K | 0.0511
299.02 K | 0.0732
301.52 K | 0.0997
303.08 K | 0.117
304.88 K | 0.144
306.15 K | 0.163

CCCCCCCCCCCCCCCCCCCCCCC
Settings | solubility (mole fraction)
271.13 K | 0.00366
280.09 K | 0.0136
285.88 K | 0.0295
288.62 K | 0.0415
292.61 K | 0.0698
295.02 K | 0.094
297.34 K | 0.124
298.77 K | 0.147
300.52 K | 0.173
300.9 K | 0.184

CCCCCCCCCCCCCCCCCCCCC
Settings | solubility (mole fraction)
262.5 K | 0.0047
268.03 K | 0.01
275.53 K | 0.026
278.56 K | 0.0366
281.9 K | 0.0549
284.95 K | 0.0739
286.6 K | 0.095
288.45 K | 0.115
290 K | 0.14
291.15 K | 0.164
293.16 K | 0.201
294.57 K | 0.235
295.72 K | 0.263
